Results as given in patent US11000033B2, “Ketone or oxime compound, and herbicide” (NISSAN CHEMICAL CORPORATION, priority 2014, dated 2021).

Legend:
Assay type in all cases: in vivo
Abutilon theophrasti = experiment: Test Example 4: herbicidal effect by soil treatment (symbol M)
Outline: (§1)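 Seeds were sown in sterilized diluvial soil, covered with about 1.5 cm of soil, and the soil surface was sprayed with a water-diluted emulsion of the compound at a predetermined rate. Plants grew in a greenhouse at 25° C. to 30° C.; effects were scored visually 3 weeks after application.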

[1] = system: Echinochloa oryzacola Vasing.; experiment: Test Example 1: herbicidal activity, application before weed generation in submerged conditions (symbol A); settings: application herbicide amount 320 g/ha
Outline: (§2)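 Application before weed emergence: an aqueous dilution of the emulsion formulation was poured onto the surface of 4 cm-deep floodwater on the day of sowing. Effect was judged after 3 weeks (greenhouse, 25–30 °C).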

beet [2] = experiment: Test Example 5: effect on crop by foliage application, plastic box (symbol f); settings: 320 g/ha, 3 weeks after application
Outline: (§3)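 Sterilized diluvial soil, plastic box (21 × 13 × 7 cm); spot sowing, ~1.5 cm soil cover; greenhouse 25–30° C.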

beet [3] = experiment: Test Example 4: effect on crop by soil treatment (symbol f)
Outline: (§4)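 Diluvial soil (sterilized) in boxes; seeds placed spot-wise alongside weed species; ~1.5 cm covering soil. Greenhouse, 25–30° C.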

Amaranthus retroflexus = experiment: Test Example 5: herbicidal effect by foliage application, plastic box (symbol N); settings: 320 g/ha, 3 weeks after application
Outline: (§5)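 Emulsion formulation, diluted with water to the intended rate, was applied uniformly to leaves by small sprayer. Recipients were 14-day greenhouse-grown seedlings (25° C. to 30° C.). Assessment followed at 3 weeks.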

Monochoria vaginalis [4] = experiment: Test Example 2: herbicidal activity, application during weed generation in submerged conditions (symbol C); settings: Table 23; application herbicide amount 320 g/ha; grade 0-5 by criteria of Test Example 1
Outline: (§6)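 Paddy pot test, submerged (4 cm water), alluvial soil, mixed sowing; greenhouse 25–30° C. Emulsion formulation diluted to predetermined rate, applied onto floodwater at 1–2 leaf stage. Visual herbicidal rating at 3 wk post-treatment.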

Scirpus juncoides = experiment: Test Example 2: herbicidal activity, application during weed generation in submerged conditions (symbol B); settings: Table 23; application herbicide amount 320 g/ha; grade 0-5 by criteria of Test Example 1
Outline: as §6

[5] = system: Echinochloa oryzacola Vasing.; experiment: Test Example 2: herbicidal activity, application during weed generation in submerged conditions (symbol A); settings: Table 23; application herbicide amount 320 g/ha; grade 0-5 by criteria of Test Example 1
Outline: as §6

Monochoria vaginalis [6] = experiment: Test Example 1: herbicidal activity, application before weed generation in submerged conditions (symbol C); settings: application herbicide amount 320 g/ha
Outline: as §2

corn = experiment: Test Example 4: effect on crop by soil treatment (symbol c)
Outline: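 Crop seed is sown in spots together with several weed species in a box of sterilized diluvial soil. It is covered by about 1.5 cm of soil and kept in a greenhouse held between 25° C. and 30° C.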

wheat = experiment: Test Example 4: effect on crop by soil treatment (symbol e)
Outline: as §4

Galium spurium [7] = experiment: Test Example 4: herbicidal effect by soil treatment (symbol Q)
Outline: as §1

Galium spurium [8] = experiment: Test Example 5: herbicidal effect by foliage application, plastic box (symbol Q); settings: 320 g/ha, 3 weeks after application
Outline: as §5

Setaria viridis = experiment: Test Example 4: herbicidal effect by soil treatment (symbol G)
Outline: as §1

Lolium multiflorum Lam. = experiment: Test Example 5: herbicidal effect by foliage application, plastic box (symbol K); settings: 320 g/ha, 3 weeks after application
Outline: as §5

Alopecurus myosuroides = experiment: Test Example 5: herbicidal effect by foliage application, plastic box (symbol J); settings: 320 g/ha, 3 weeks after application
Outline: as §5

rice plant = experiment: Test Example 5: effect on crop by foliage application, plastic box (symbol b); settings: 320 g/ha, 3 weeks after application
Outline: as §3

[9] = application herbicide amount 320 g/ha

Structure (SMILES) | Herbicidal effect grade, A: Echinochloa oryzacola Vasing. [1] | f: beet, effect on crop grade (beet [2]) | N: Amaranthus retroflexus, herbicidal effect grade (Amaranthus retroflexus) | Herbicidal effect grade, C: Monochoria vaginalis (Monochoria vaginalis [4]) | Herbicidal effect grade, B: Scirpus juncoides (Scirpus juncoides) | Herbicidal effect grade, A: Echinochloa oryzacola Vasing. [5] | Herbicidal effect grade, C: Monochoria vaginalis (Monochoria vaginalis [6]) | Q: Galium spurium, herbicidal effect grade (Galium spurium [8]) | K: Lolium multiflorum Lam., herbicidal effect grade (Lolium multiflorum Lam.) | J: Alopecurus myosuroides, herbicidal effect grade (Alopecurus myosuroides) | b: directly sowed rice plant, effect on crop grade (rice plant) | M: Abutilon theophrasti, herbicidal effect grade (Abutilon theophrasti; [9]) | A (Echinochloa oryzacola Vasing.) herbicidal effect grade [1] | f: beet, effect on crop grade (beet [3]; [9]) | C (Monochoria vaginalis) herbicidal effect grade (Monochoria vaginalis [6]) | c: corn, effect on crop grade (corn; [9]) | e: wheat, effect on crop grade (wheat; [9]) | Q: Galium spurium, herbicidal effect grade (Galium spurium [7]; [9]) | G: Setaria viridis, herbicidal effect grade (Setaria viridis; [9]) | other results
CON=C(C)CC1CC(OC(=O)C(C)(C)C)=C(c2c(C)cc(C)cc2C)C1=O (centres unmarked) [1-004, 2-mesityl-4-{2-(methoxyimino)propyl}-3-oxocyclopent-1-en-1-yl pivalate] | 5 (Herbicidal ratio of 90% or more (almost completely withered)) | 3 (Herbicidal ratio of 40% or higher and lower than 70%) | 4 (Herbicidal ratio of 70% or higher and lower than 90%) | 4 (Herbicidal ratio of 70% or higher and lower than 90%) | 4 (Herbicidal ratio of 70% or higher and lower than 90%) | 5 (Herbicidal ratio of 90% or more (almost completely withered)) | 4 (Herbicidal ratio of 70% or higher and lower than 90%) | 3 (Herbicidal ratio of 40% or higher and lower than 70%) | 5 (Herbicidal ratio of 90% or more (almost completely withered)) | 5 (Herbicidal ratio of 90% or more (almost completely withered)) | 5 (Herbicidal ratio of 90% or more (almost completely withered)) |  |  |  |  |  |  |  |  | M (Abutilon theophrasti) herbicidal effect grade (Abutilon theophrasti; [9]): 5 (Herbicidal ratio of 90% or more (almost completely withered)); f (beet) effect on crop grade (beet [3]; [9]): 4 (Herbicidal ratio of 70% or higher and lower than 90%); c (corn) effect on crop grade (corn; [9]): 4 (Herbicidal ratio of 70% or higher and lower than 90%); e (wheat) effect on crop grade (wheat; [9]): 3 (Herbicidal ratio of 40% or higher and lower than 70%); Q (Galium spurium) herbicidal effect grade (Galium spurium [7]; [9]): 0 (Herbicidal ratio of 5% or lower (almost no effect)); G (Setaria viridis) herbicidal effect grade (Setaria viridis; [9]): 5 (Herbicidal ratio of 90% or more (almost completely withered))
CON=C(C)CC1CC(OS(=O)(=O)N(C)C)=C(c2c(C)cc(C)cc2C)C1=O (centres unmarked) [1-122] | 5 (Herbicidal ratio of 90% or more (almost completely withered)) |  |  | 0 (Herbicidal ratio of 5% or lower (almost no effect)) | 5 (Herbicidal ratio of 90% or more (almost completely withered)) | 5 (Herbicidal ratio of 90% or more (almost completely withered)) | 0 (Herbicidal ratio of 5% or lower (almost no effect)) |  |  |  |  |  |  |  |  |  |  |  |  | M: Abutilon theophrasti, herbicidal effect grade (Abutilon theophrasti; 320 g/ha): 0 (Herbicidal ratio of 5% or lower (almost no effect)); f: beet, effect on crop (criteria 0-5) (beet [2]): 0 (Herbicidal ratio of 5% or lower (almost no effect)); f: beet, effect grade on crop (beet [3]; 320 g/ha): 0 (Herbicidal ratio of 5% or lower (almost no effect)); N: Amaranthus retroflexus, herbicidal effect (criteria 0-5) (Amaranthus retroflexus): 1 (Herbicidal ratio of 5% or higher and lower than 20%); c: corn, effect grade on crop (corn; 320 g/ha): 2 (Herbicidal ratio of 20% or higher and lower than 40%); e: wheat, effect grade on crop (wheat; 320 g/ha): 0 (Herbicidal ratio of 5% or lower (almost no effect)); Q: Galium spurium, herbicidal effect grade (Galium spurium [7]; 320 g/ha): 0 (Herbicidal ratio of 5% or lower (almost no effect)); Q: Galium spurium, herbicidal effect (criteria 0-5) (Galium spurium [8]): 0 (Herbicidal ratio of 5% or lower (almost no effect)); G: Setaria viridis, herbicidal effect grade (Setaria viridis; 320 g/ha): 3 (Herbicidal ratio of 40% or higher and lower than 70%); K: Lolium multiflorum Lam., herbicidal effect (criteria 0-5) (Lolium multiflorum Lam.): 5 (Herbicidal ratio of 90% or more (almost completely withered)); J: Alopecurus myosuroides, herbicidal effect (criteria 0-5) (Alopecurus myosuroides): 5 (Herbicidal ratio of 90% or more (almost completely withered)); b: directly sowed rice plant, effect on crop (criteria 0-5) (rice plant): 5 (Herbicidal ratio of 90% or more (almost completely withered))
CCC(CC1CC(O)=C(c2c(C)cc(C)cc2OC)C1=O)=NOC (mixture of isomers) [13-003] |  | 0 (Herbicidal ratio of 5% or lower (almost no effect)) | 0 (Herbicidal ratio of 5% or lower (almost no effect)) | 3 (Herbicidal ratio of 40% or higher and lower than 70%) | 4 (Herbicidal ratio of 70% or higher and lower than 90%) | 5 (Herbicidal ratio of 90% or more (almost completely withered)) |  | 3 (Herbicidal ratio of 40% or higher and lower than 70%) | 5 (Herbicidal ratio of 90% or more (almost completely withered)) | 5 (Herbicidal ratio of 90% or more (almost completely withered)) | 5 (Herbicidal ratio of 90% or more (almost completely withered)) | 4 (Herbicidal ratio of 70% or higher and lower than 90%) | 5 (Herbicidal ratio of 90% or more (almost completely withered)) | 0 (Herbicidal ratio of 5% or lower (almost no effect)) | 0 (Herbicidal ratio of 5% or lower (almost no effect)) | 5 (Herbicidal ratio of 90% or more (almost completely withered)) | 0 (Herbicidal ratio of 5% or lower (almost no effect)) | 0 (Herbicidal ratio of 5% or lower (almost no effect)) | 5 (Herbicidal ratio of 90% or more (almost completely withered)) | 
CCC(CC1CC(O)=C(c2c(C)cc(-c3ccccc3)cc2OC)C1=O)=NOC (mixture of isomers) [13-004] |  | 0 (Herbicidal ratio of 5% or lower (almost no effect)) | 0 (Herbicidal ratio of 5% or lower (almost no effect)) | 4 (Herbicidal ratio of 70% or higher and lower than 90%) | 5 (Herbicidal ratio of 90% or more (almost completely withered)) | 5 (Herbicidal ratio of 90% or more (almost completely withered)) |  | 4 (Herbicidal ratio of 70% or higher and lower than 90%) | 5 (Herbicidal ratio of 90% or more (almost completely withered)) | 5 (Herbicidal ratio of 90% or more (almost completely withered)) | 5 (Herbicidal ratio of 90% or more (almost completely withered)) | 0 (Herbicidal ratio of 5% or lower (almost no effect)) | 5 (Herbicidal ratio of 90% or more (almost completely withered)) | 0 (Herbicidal ratio of 5% or lower (almost no effect)) | 5 (Herbicidal ratio of 90% or more (almost completely withered)) | 5 (Herbicidal ratio of 90% or more (almost completely withered)) | 5 (Herbicidal ratio of 90% or more (almost completely withered)) | 0 (Herbicidal ratio of 5% or lower (almost no effect)) | 5 (Herbicidal ratio of 90% or more (almost completely withered)) | 
